From PMC3307806 (Molecular Pharmaceutics, 2012)
Entries after “also recorded” stand apart in the source; their conditions may differ.

Experiments:
[1] = target: P-gp at the rat BBB (Rattus norvegicus, UniProt Q6PSM0); details: absence of CsA, 60 min, n=5
[2] = Pseudo-steady-state blood CsA and plasma Lop/dLop concentrations in rats; details: 60 min; Student's t-test
[3] = tested on: P-gp at the human BBB; details: human PET study; cited from earlier work
[4] = tested on: P-gp (mdr1a/b); details: 7; cited from earlier work
[5] = tested on: P-gp; details: verapamil-bodipy or prazosin-bodipy as probe substrate; cited from earlier work

Chain of P-gp at the rat BBB (Q6PSM0 1-1272): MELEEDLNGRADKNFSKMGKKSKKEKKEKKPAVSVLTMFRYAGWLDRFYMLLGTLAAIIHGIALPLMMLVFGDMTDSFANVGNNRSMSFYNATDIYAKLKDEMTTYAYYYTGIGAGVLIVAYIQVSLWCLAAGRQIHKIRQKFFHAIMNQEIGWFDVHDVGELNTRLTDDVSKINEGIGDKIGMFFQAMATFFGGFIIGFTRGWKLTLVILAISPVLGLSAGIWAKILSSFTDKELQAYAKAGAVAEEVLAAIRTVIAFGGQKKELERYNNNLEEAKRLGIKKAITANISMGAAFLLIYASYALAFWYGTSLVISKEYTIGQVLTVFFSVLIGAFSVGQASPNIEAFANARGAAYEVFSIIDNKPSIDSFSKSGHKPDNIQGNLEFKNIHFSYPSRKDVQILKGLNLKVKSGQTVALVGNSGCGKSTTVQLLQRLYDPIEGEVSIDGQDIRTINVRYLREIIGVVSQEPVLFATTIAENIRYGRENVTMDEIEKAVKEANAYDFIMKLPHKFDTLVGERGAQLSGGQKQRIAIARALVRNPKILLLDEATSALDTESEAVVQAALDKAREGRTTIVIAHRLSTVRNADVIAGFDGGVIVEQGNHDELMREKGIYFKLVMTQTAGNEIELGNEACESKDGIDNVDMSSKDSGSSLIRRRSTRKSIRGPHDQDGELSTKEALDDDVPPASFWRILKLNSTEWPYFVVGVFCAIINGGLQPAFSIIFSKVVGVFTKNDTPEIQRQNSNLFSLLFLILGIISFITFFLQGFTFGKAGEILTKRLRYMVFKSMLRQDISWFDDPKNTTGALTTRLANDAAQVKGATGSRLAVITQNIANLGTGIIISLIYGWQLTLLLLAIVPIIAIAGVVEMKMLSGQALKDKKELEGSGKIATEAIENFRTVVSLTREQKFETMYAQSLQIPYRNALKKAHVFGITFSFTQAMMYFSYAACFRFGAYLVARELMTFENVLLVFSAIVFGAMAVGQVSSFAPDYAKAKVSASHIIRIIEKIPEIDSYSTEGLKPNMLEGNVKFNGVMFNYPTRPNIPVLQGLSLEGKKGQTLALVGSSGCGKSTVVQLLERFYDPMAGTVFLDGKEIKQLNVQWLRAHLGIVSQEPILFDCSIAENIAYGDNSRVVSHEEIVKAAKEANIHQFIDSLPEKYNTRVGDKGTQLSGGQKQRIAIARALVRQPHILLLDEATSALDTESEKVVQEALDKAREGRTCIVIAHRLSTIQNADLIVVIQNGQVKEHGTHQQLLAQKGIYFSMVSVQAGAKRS

CNC(=O)C(CCN1CCC(O)(c2ccc(Cl)cc2)CC1)(c1ccccc1)c1ccccc1 [dLop, N-desmethyl Loperamide]
brain:plasma concentrations (ratio) corrected for vascular content [1]: 0.11 ± 0.04 | brain:plasma concentrations (ratio) ([1]; not corrected for vascular content): 0.14 ± 0.04 | effect of the presence of CsA on pseudo-steady-state plasma concentration [2]: did not significantly affect; also recorded: not significantly affected

CN([11CH3])C(=O)C(CCN1CCC(O)(c2ccc(Cl)cc2)CC1)(c1ccccc1)c1ccccc1 [11C-Lop]
share of radioactivity in the plasma [3]: 76%

CN(C)C(=O)C(CCN1CCC(O)(c2ccc(Cl)cc2)CC1)(c1ccccc1)c1ccccc1 [Lop, Loperamide]
effect of the presence of CsA on pseudo-steady-state plasma concentration [2]: did not significantly affect; also recorded: not significantly affected

Cc1c(O)cccc1C(=O)N[C@@H](CSc1ccccc1)[C@H](O)CN1C[C@H]2CCCC[C@H]2C[C@H]1C(=O)NC(C)(C)C [Nelfinavir]
increase in brain:blood concentration ratio in mdr1a/b(-/-) vs. wild-type mice [4]: 3400%

CCC(C)n1ncn(-c2ccc(N3CCN(c4ccc(OCC5COC(Cn6cncn6)(c6ccc(Cl)cc6Cl)O5)cc4)CC3)cc2)c1=O (centres unmarked) [itraconazole]
difference in potency (EC50) to inhibit P-gp depending on the probe substrate [5]: 10 fold

C=C[C@H]1C[N@@]2CC[C@H]1C[C@@H]2[C@@H](O)c1ccnc2ccc(OC)cc12 [quindine]
difference in potency (EC50) to inhibit P-gp depending on the probe substrate [5]: 20 fold
